Test results taken from ChEMBL document CHEMBL2434921, “New synthetic aliphatic sulfonamido-quaternary ammonium salts as anticancer chemotherapeutic agents” (2013).
Calls of active or inactive are those of the source. The calls are words filed in the database; no cut-off is given here.

Experiments:
NCI-H23 [1] = assay: Growth inhibition of human NCI-H23 cells after 48 hrs by SRB assay; format: functional; conditions: NCI-H23, 48 h
HCT-15 [2] = assay: Growth inhibition of human HCT15 cells after 48 hrs by SRB assay; format: functional; conditions: HCT-15, 48 h
[3] = molecular target: Rho-related GTP-binding protein RhoB (Homo sapiens) (UniProt P62745); assay: Transactivation of RhoB (unknown origin) transfected in human HeLa cells at 5 uM measured over 10 secs by dual luciferase reporter gene assay; format: cell-based
NUGC-3 [4] = assay: Growth inhibition of human NUGC3 cells after 48 hrs by SRB assay; format: functional; conditions: NUGC-3, 48 h
ACHN [5] = assay: Growth inhibition of human ACHN cells after 48 hrs by SRB assay; format: functional
MDA-MB-231 [6] = assay: Growth inhibition of human MDA-MB-231 cells after 48 hrs by SRB assay; format: functional; conditions: MDA-MB-231, 48 h
PC-3 [7] = assay: Growth inhibition of human PC3 cells after 48 hrs by SRB assay; format: functional; conditions: PC-3, 48 h
PC-3 [8] = assay: Growth of human PC3 cells at 10 uM after 48 hrs by SRB assay; conditions: PC-3, 48 h
NUGC-3 [9] = assay: Growth of human NUGC3 cells at 1 uM after 48 hrs by SRB assay; conditions: NUGC-3, 48 h
ACHN [10] = assay: Growth of human ACHN cells at 10 uM after 48 hrs by SRB assay
HCT-15 [11] = assay: Growth of human HCT15 cells at 3 uM after 48 hrs by SRB assay; conditions: HCT-15, 48 h
ACHN [12] = assay: Growth of human ACHN cells at 0.1 uM after 48 hrs by SRB assay
ACHN [13] = assay: Growth of human ACHN cells at 0.3 uM after 48 hrs by SRB assay
NUGC-3 [14] = assay: Growth of human NUGC3 cells at 0.1 uM after 48 hrs by SRB assay; conditions: NUGC-3, 48 h
NUGC-3 [15] = assay: Growth of human NUGC3 cells at 0.3 uM after 48 hrs by SRB assay; conditions: NUGC-3, 48 h
HCT-15 [16] = assay: Growth of human HCT15 cells at 0.3 uM after 48 hrs by SRB assay; conditions: HCT-15, 48 h
NCI-H23 [17] = assay: Growth of human NCI-H23 cells at 10 uM after 48 hrs by SRB assay; conditions: NCI-H23, 48 h
NCI-H23 [18] = assay: Growth of human NCI-H23 cells at 0.3 uM after 48 hrs by SRB assay; conditions: NCI-H23, 48 h
MDA-MB-231 [19] = assay: Growth of human MDA-MB-231 cells at 1 uM after 48 hrs by SRB assay; conditions: MDA-MB-231, 48 h
MDA-MB-231 [20] = assay: Growth of human MDA-MB-231 cells at 10 uM after 48 hrs by SRB assay; conditions: MDA-MB-231, 48 h
MDA-MB-231 [21] = assay: Growth of human MDA-MB-231 cells at 0.1 uM after 48 hrs by SRB assay; conditions: MDA-MB-231, 48 h
MDA-MB-231 [22] = assay: Growth of human MDA-MB-231 cells at 3 uM after 48 hrs by SRB assay; values are per cent of control; conditions: MDA-MB-231, 48 h
PC-3 [23] = assay: Growth inhibition of human PC3 cells at 1 uM after 48 hrs by SRB assay; values are per cent of control; conditions: PC-3, 48 h
PC-3 [24] = assay: Growth inhibition of human PC3 cells at 3 uM after 48 hrs by SRB assay; values are per cent of control; conditions: PC-3, 48 h
ACHN [25] = assay: Growth inhibition of human ACHN cells at 3 uM after 48 hrs by SRB assay; values are per cent of control
ACHN [26] = assay: Growth inhibition of human ACHN cells at 1 uM after 48 hrs by SRB assay; values are per cent of control
NUGC-3 [27] = assay: Growth inhibition of human NUGC3 cells at 3 uM after 48 hrs by SRB assay; values are per cent of control; conditions: NUGC-3, 48 h
PC-3 [28] = assay: Growth inhibition of human PC3 cells at 0.1 uM after 48 hrs by SRB assay; values are per cent of control; conditions: PC-3, 48 h
PC-3 [29] = assay: Growth inhibition of human PC3 cells at 0.3 uM after 48 hrs by SRB assay; values are per cent of control; conditions: PC-3, 48 h
HCT-15 [30] = assay: Growth inhibition of human HCT15 cells at 1 uM after 48 hrs by SRB assay; values are per cent of control; conditions: HCT-15, 48 h
NUGC-3 [31] = assay: Growth inhibition of human NUGC3 cells at 10 uM after 48 hrs by SRB assay; values are per cent of control; conditions: NUGC-3, 48 h
HCT-15 [32] = assay: Growth inhibition of human HCT15 cells at 10 uM after 48 hrs by SRB assay; values are per cent of control; conditions: HCT-15, 48 h
NCI-H23 [33] = assay: Growth inhibition of human NCI-H23 cells at 1 uM after 48 hrs by SRB assay; values are per cent of control; conditions: NCI-H23, 48 h
NCI-H23 [34] = assay: Growth inhibition of human NCI-H23 cells at 3 uM after 48 hrs by SRB assay; values are per cent of control; conditions: NCI-H23, 48 h
HCT-15 [35] = assay: Growth inhibition of human HCT15 cells at 0.1 uM after 48 hrs by SRB assay; values are per cent of control; conditions: HCT-15, 48 h
NCI-H23 [36] = assay: Growth inhibition of human NCI-H23 cells at 0.1 uM after 48 hrs by SRB assay; values are per cent of control; conditions: NCI-H23, 48 h
MDA-MB-231 [37] = assay: Growth inhibition of human MDA-MB-231 cells at 0.3 uM after 48 hrs by SRB assay; values are per cent of control; conditions: MDA-MB-231, 48 h

Chain of Rho-related GTP-binding protein RhoB (Homo sapiens) (P62745 whole entry): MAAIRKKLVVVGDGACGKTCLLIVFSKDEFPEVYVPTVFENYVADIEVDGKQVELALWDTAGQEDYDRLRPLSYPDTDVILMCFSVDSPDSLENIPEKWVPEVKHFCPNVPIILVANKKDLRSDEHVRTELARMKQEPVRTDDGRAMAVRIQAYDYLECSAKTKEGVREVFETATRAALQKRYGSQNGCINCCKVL

SMILES	GI50 (NCI-H23 [1]) [nM]	GI50 (HCT-15 [2]) [nM]	Activity [3]	GI50 (NUGC-3 [4]) [nM]	GI50 (ACHN [5]) [nM]	GI50 (MDA-MB-231 [6]) [nM]	GI50 (PC-3 [7]) [nM]	growth, % of control at 10 µM (PC-3 [8]) [%]	growth, % of control at 1 µM (NUGC-3 [9]) [%]	growth, % of control at 10 µM (ACHN [10]) [%]	growth, % of control at 3 µM (HCT-15 [11]) [%]	growth, % of control at 0.1 µM (ACHN [12]) [%]	growth, % of control at 0.3 µM (ACHN [13]) [%]	growth, % of control at 0.1 µM (NUGC-3 [14]) [%]	growth, % of control at 0.3 µM (NUGC-3 [15]) [%]	growth, % of control at 0.3 µM (HCT-15 [16]) [%]	growth, % of control at 10 µM (NCI-H23 [17]) [%]	growth, % of control at 0.3 µM (NCI-H23 [18]) [%]	growth, % of control at 1 µM (MDA-MB-231 [19]) [%]	growth, % of control at 10 µM (MDA-MB-231 [20]) [%]	other results
C=CC[N+](C)(C)CCN(C)S(=O)(=O)CCCCCCCCCCCCCCCC	890	4730	Active	760	3480	1350	620	-4.8	65.5	38.6	76.5	135	130	108	105	101	2.5	96.2	86.5	18.4	growth, % of control at 0.1 µM (MDA-MB-231 [21]): 108%; growth, % of control at 3 µM (MDA-MB-231 [22]): 39.4%; growth, % of control at 1 µM (PC-3 [23]): 61.8%; growth, % of control at 3 µM (PC-3 [24]): 10.1%; growth, % of control at 3 µM (ACHN [25]): 69.3%; growth, % of control at 1 µM (ACHN [26]): 112%; growth, % of control at 3 µM (NUGC-3 [27]): 20.9%; growth, % of control at 0.1 µM (PC-3 [28]): 99.9%; growth, % of control at 0.3 µM (PC-3 [29]): 95.9%; growth, % of control at 1 µM (HCT-15 [30]): 97.2%; growth, % of control at 10 µM (NUGC-3 [31]): 9.4%; growth, % of control at 10 µM (HCT-15 [32]): 48.7%; growth, % of control at 1 µM (NCI-H23 [33]): 69.8%; growth, % of control at 3 µM (NCI-H23 [34]): 30.9%; growth, % of control at 0.1 µM (HCT-15 [35]): 100%; growth, % of control at 0.1 µM (NCI-H23 [36]): 101%; growth, % of control at 0.3 µM (MDA-MB-231 [37]): 104%
CCCCCCCCCCCCCCCCS(=O)(=O)N(C)CCC[N+](C)(C)C	910	780	Active	210	1000	1040	440	-54.1	25	-31.4	26.7	96.7	97.6	91.8	59.1	104	-10.4	97.3	66.5	8.8	growth, % of control at 0.1 µM (MDA-MB-231 [21]): 97.6%; growth, % of control at 3 µM (MDA-MB-231 [22]): 39.2%; growth, % of control at 1 µM (PC-3 [23]): 31.5%; growth, % of control at 3 µM (PC-3 [24]): -24.5%; growth, % of control at 3 µM (ACHN [25]): 36.3%; growth, % of control at 1 µM (ACHN [26]): 72.2%; growth, % of control at 3 µM (NUGC-3 [27]): -22.4%; growth, % of control at 0.1 µM (PC-3 [28]): 101%; growth, % of control at 0.3 µM (PC-3 [29]): 91%; growth, % of control at 1 µM (HCT-15 [30]): 57%; growth, % of control at 10 µM (NUGC-3 [31]): -40.9%; growth, % of control at 10 µM (HCT-15 [32]): 8.7%; growth, % of control at 1 µM (NCI-H23 [33]): 72.7%; growth, % of control at 3 µM (NCI-H23 [34]): 26.5%; growth, % of control at 0.1 µM (HCT-15 [35]): 100%; growth, % of control at 0.1 µM (NCI-H23 [36]): 94.9%; growth, % of control at 0.3 µM (MDA-MB-231 [37]): 92.3%
CCCCCCCCCCCCCCCCS(=O)(=O)NCCC[N+](C)(C)C	1560	860	Active	560	1890	1390	580	-32.7	60.2	-7.7	22.4	117	119	103	93.6	93	-23.1	93.7	87	12.9	growth, % of control at 0.1 µM (MDA-MB-231 [21]): 103%; growth, % of control at 3 µM (MDA-MB-231 [22]): 41%; growth, % of control at 1 µM (PC-3 [23]): 64.6%; growth, % of control at 3 µM (PC-3 [24]): -1%; growth, % of control at 3 µM (ACHN [25]): 80.3%; growth, % of control at 1 µM (ACHN [26]): 112%; growth, % of control at 3 µM (NUGC-3 [27]): -5.5%; growth, % of control at 0.1 µM (PC-3 [28]): 100%; growth, % of control at 0.3 µM (PC-3 [29]): 102%; growth, % of control at 1 µM (HCT-15 [30]): 73.6%; growth, % of control at 10 µM (NUGC-3 [31]): -37.7%; growth, % of control at 10 µM (HCT-15 [32]): 1.7%; growth, % of control at 1 µM (NCI-H23 [33]): 88.6%; growth, % of control at 3 µM (NCI-H23 [34]): 47.1%; growth, % of control at 0.1 µM (HCT-15 [35]): 96%; growth, % of control at 0.1 µM (NCI-H23 [36]): 86.7%; growth, % of control at 0.3 µM (MDA-MB-231 [37]): 108%
